Data published in PMC9101684, “Hempseed (Cannabis sativa) Peptide H3 ([sequence]) Exerts Cholesterol-Lowering Effects in Human Hepatic Cell Line” (Nutrients, 2022).
Where two headings read alike, the source gives them in different places.

Key:
[1] = tested on: PCSK9; test: ELISA, mature PCSK9 secreted by HepG2 cells; format: cell-based, human
[2] = tested on: HMGCoAR; test: Western blot, HMGCoAR protein in HepG2 cells; format: cell-based, human; conditions: pravastatin 1.0 µM, 24 h, versus control; p < 0.01; mean ± S.D., three independent experiments in duplicate
Experimental: (§1) Immunoblotting experiments were performed using an optimized protocol. Details are available in the Supplementary Materials. […]
(§2) 2.7. Western Blot Analysis
(§3) Immunoblotting experiments were performed using optimized protocol […]
(§4) µM of H3 for 24 h. After each treatment, the supernatants were collected and stored at -20 °C; cells were scraped in 40 µL ice-cold lysis buffer (RIPA buffer + inhibitor cocktail + 1:100 PMSF + 1:100 Na-orthovanadate + 1:1000 β-mercaptoethanol) and transferred in ice-cold microcentrifuge tubes. After centrifugation at 13,300 g for 15 min at 4 °C, the supernatants were recovered and transferred into new ice-cold tubes. […]
(§5) Cocktail) on ice for 20 min and then centrifuged 12000 rpm for 10 min at 4°C and the supernatant was collected (nucleus isolate). Total proteins were quantified […]
(§6) Sodium Dodecyl Sulfate-Polyacrylamide (SDS-PAGE) gel at 130 V for 45 min.
(§7) Subsequently, the gel was pre-equilibrated in H2O for 5 min at room temperature (RT) and transferred to a nitrocellulose membrane (Mini nitrocellulose Transfer Packs,) using a Trans-Blot Turbo at 1.3 A, 25 V for 7 min. Target proteins, on milk or BSA blocked membrane, were detected by primary antibodies as follows: anti-SREBP-2, anti-LDLR, anti-HMGCoAR, anti-PCSK9, anti HNF1-α, anti-p-HMGCoAR, anti-p-AMPK and anti-β-actin. […]

[3] = tested on: PCSK9; test: Western blot, intracellular PCSK9 in HepG2 cells; format: cell-based, human; conditions: pravastatin 1.0 µM, 24 h, versus control; p < 0.0001; mean ± S.D., three experiments in duplicate
Experimental: as §1, §2, §3, §4, §5, §6, §7

[4] = tested on: LDLR; test: In-Cell Western (ICW), LDLR localized on cellular membranes of HepG2 cells; format: cell-based, human; conditions: pravastatin 1.0 µM, 24 h, versus control, p < 0.0001, mean ± S.D., three experiments in triplicate
Experimental: For the experiments, a total of 3 × 10^4 HepG2 cells/well were seeded in 96-well plates. The following day, the cells were washed with PBS and then starved overnight (O/N) in DMEM without FBS nor antibiotics.
HMGCoAR were provided in the HMGCoAR Assay Kit (Sigma Aldrich SRL, Milan, Italy). The experiments were carried out following the manufacturer instructions at 37 °C. In particular, each reaction (200 µL) was prepared adding the reagents in the following order: 1 X assay buffer, a 10–1000 µM doses of H3 or vehicle (C), the NADPH (4 µL), the substrate solution (12 µL), and finally the HMGCoAR (catalytic domain) (2 µL). Subsequently, the samples were mixed and the absorbance at 340 nm read by the microplate reader Synergy H1
In-Cell Western (ICW) Assay
For the experiments, a total of 3 X 10 4 HepG2 cells/well were seeded in 96-well plates. The following day, cells were washed with PBS and then starved overnight (O/N) in DMEM without FBS and antibiotics.
Subsequently, they were fixed in 4% paraformaldehyde for 20 min at room temperature (RT). […] The reaction was stopped with 2 M H2SO4 and then the absorbance at 450 nm was measured using the microplate reader Synergy H1 (Winooski, VT, USA). After the read, cells were stained by adding 1 X Janus Green stain, incubating for 5 min at RT. […]

[5] = tested on: SREBP-2; test: Western blot, mature and precursor SREBP-2 in HepG2 cells; format: cell-based, human; conditions: pravastatin 1.0 µM, 24 h, versus untreated
Experimental: as §1, §2, §3
µM of H3 for 24 h. After each treatment, the supernatants were collected and stored at -20 °C; cells were scraped in 40 µL ice-cold lysis buffer (RIPA buffer + inhibitor cocktail + 1:100 PMSF + 1:100 Na-orthovanadate + 1:1000 β-mercaptoethanol) and transferred in ice-cold microcentrifuge tubes. After centrifugation at 13,300 g for 15 min at 4 °C, the supernatants were recovered and transferred into new ice-cold tubes. For the mature SREBP-2 nuclear […]
for at 37 °C under 5% CO2 atmosphere for 24h. Therefore, cells were collected with PBS ice-cold and centrifuged 1500 rmp for 5 min at 4°C. The pellet was incubated with 20 µL of Nuclei Isolation Buffer A (10 mM HEPES pH 7.9, 1.5 mM MgCl2, 10 mM KCl, 0.2 mM EDTA, 0.1% β-mercaptoethanol, 0.5 mM PMSF, 0.1 % NP-40, one cOmplete™ Mini, EDTA-free Protease Inhibitor Cocktail) on ice for 10 min and then centrifuged 12000 rpm for 10 min at 4°C. Subsequently, the pellet was incubated with 20 µL of Nuclei Isolation Buffer B (20 mM HEPES […]
0.5 mM PMSF, 0.42 M NaCl, one cOmplete™ Mini, EDTA-free Protease Inhibitor Cocktail) on ice for 20 min and then centrifuged 12000 rpm for 10 min at 4°C and the supernatant was collected (nucleus isolate). Total proteins were quantified […]
as §7, with “anti-β-actin. Secondary antibodies conjugated with HRP and a chemiluminescent reagent were used to visualize target proteins and their signal was quantified using the Image Lab Software (Biorad, Hercules,” for “anti-β-actin.”

[6] = tested on: AMPK; test: Western blot, p-AMPK (threonine 172) in HepG2 cells; format: cell-based, human; conditions: pravastatin 1.0 µM, 24 h, versus control; p < 0.05; mean ± S.D., three independent experiments in duplicate
Experimental: as §1, §2, §3, §4, §5, §6, §7

[7] = tested on: HMGCoAR; parameters: method as in 5 sources, ref 24 = [24]; PMID 2513368; doi:10.1016/S0022-2275(20)38255-9; 24. Mosley S.T. Kalinowski S.S. Schafer B.L. Tanaka R.D. Tissue-selective acute effects of inhibitors of 3-hydroxy-3-methylglutaryl coenzyme A reductase on cholesterol biosynthesis in lens J. Lipid Re ||| ref 32 = [32]; PMID 25690031; doi:10.3390/ijms16024150; 32. Soares R.A.M. Mendonça S. De Castro L.Í.A. Menezes A.C.C.C.C. Arêas J.A.G. Major Peptides from Amaranth (Amaranthus cruentus) Protein Inhibit HMG-CoA Reductase Activity Int. J. Mol. Sci. 2015 16 4 ||| ref 33 = [33]; doi:10.1016/j.jff.2015.02.021; 33. Lammi C. Zanoni C. Arnoldi A. […], […], and LPYP, three peptides from soy glycinin, modulate cholesterol metabolism in HepG2 cells through the activation of the LDLR-SREBP2 pathway J. Fu ||| ref 34 = [34]; PMID 26310992; doi:10.1021/acs.jafc.5b03497; 34. Lammi C. Zanoni C. Arnoldi A. Vistoli G. Two Peptides from Soy β-Conglycinin Induce a Hypocholesterolemic Effect in HepG2 Cells by a Statin-Like Mechanism: Comparative in Vitro and in Silico Model ||| ref 11, 12 = [11]; PMID 29096438; doi:10.1021/acs.jafc.7b03590; 11. Aiello G. Lammi C. Boschin G. Zanoni C. Arnoldi A. Exploration of Potentially Bioactive Peptides Generated from the Enzymatic Hydrolysis of Hempseed Proteins J. Agric. Food Chem. 2017 65 10174 101 || [12]; PMID 28931275; doi:10.1021/acs.jafc.7b02742; 12. Zanoni C. Aiello G. Arnoldi A. Lammi C. Hempseed Peptides Exert Hypocholesterolemic Effects with a Statin-Like Mechanism J. Agric. Food Chem. 2017 65 8829 8838 10.1021/acs.jafc.7b02742 28931275; conditions: cited from earlier work
Source text: Th ... || CVD is a multifactorial pathology in which oxidative and inflammatory status as well as hypercholesterolemia are among the main risk factors.

[8] = tested on: HNF1-α; test: Western blot, HNF1-α in HepG2 cells; format: cell-based, human; conditions: pravastatin 1.0 µM, 24 h, versus control; p < 0.0001; mean ± S.D., three experiments in duplicate
Experimental: as §1, §2, §3, §4, §5, §6, §7

[9] = tested on: p-HMGCoAR; test: Western blot, p-HMGCoAR (serine 872) in HepG2 cells; format: cell-based, human; conditions: pravastatin 1.0 µM, 24 h, versus control; p < 0.01; mean ± S.D., three independent experiments in duplicate
Experimental: as §1, §2, §3, §4, §5, §6, §7

[10] = tested on: HepG2 cells; test: Fluorescent LDL uptake by HepG2 cells; format: cell-based, human; conditions: pravastatin 1.0 µM, 24 h, then LDL-DyLight 550 for 2 h at 37 °C, fluorescence, versus control; p < 0.0001; mean ± S.D., three experiments in triplicate
Experimental: treatment, the culture medium was replaced with 50 µL/well LDL-DyLight™ 550 working solution (Cayman Chemical Company, Ann Arbor, MI, USA) prepared in DMEM without FBS and antibiotics. The cells were additionally incubated for 2 h at 37 °C and then the culture medium was aspirated and replaced with PBS (100 µL/well). The degree of LDL uptake was measured using the Synergy H1 fluorescent plate reader (Winooski, VT, USA) (excitation and […]

[11] = tested on: LDLR; test: Western blot, total LDLR in HepG2 cells; format: cell-based, human; conditions: pravastatin 1.0 µM, 24 h, versus control; p < 0.001; mean ± S.D., three independent experiments in duplicate
Experimental: as §1, §2, §3, §4, §5, §6, §7

[12] = tested on: AMPK; conditions: cited from earlier work
Source text: Furthermore, it is also known that statins are able to activate AMPK [44] with the consequence of a synergistic inhibition of HMGCoAR activity, its direct target. In agreement with these evidences, our results provide a clear indication that, similarly to statins, peptide H3 increases the phosphorylation level of AMPK at the Thr172 residue of the catalytic subunit, which in turn produces an inhibition of ...

[13] = from soybean glycinin hydrolysis with pepsin, read-out: IC50, HMGCoAR (soybean glycinin peptides)
[14] = LTFPGSAED from lupin protein, VGVL from amaranth protein, hydrolysis with pepsin, read-out: IC50, HMGCoAR (literature peptides)
[15] = from soybean β-conglycinin, read-out: IC50, HMGCoAR (soybean β-conglycinin peptides)

## CC[C@H](C)C(=O)O[C@H]1C[C@H](O)C=C2C=C[C@H](C)[C@H](CC[C@@H](O)C[C@@H](O)CC(=O)O)[C@H]21 [pravastatin]
[1]
  release of PCSK9 (increase up to): 119.6 ± 1.18%
[2]
  HMGCoAR protein level: 129.3 ± 9.33%
[3]
  PCSK9 protein level (increase up to): 118.8 ± 6.11%
[4]
  LDLR protein level on cellular membrane: 127.3 ± 14.31%
[5]; cytoplasmic fraction, p < 0.05, Figure S2
  precursor SREBP-2 (125 KDa) protein level: 140.8 ± 9.0%
[5]; nuclear fraction, p < 0.0001, mean ± S.D., three independent experiments in duplicate
  mature nuclear SREBP-2 (65 KDa) protein level: 152.3 ± 8.2%
[5]; total lysate, p < 0.001, mean ± S.D., three independent experiments in duplicate
  total mature SREBP-2 (65 KDa) protein level: 134.9 ± 17.3%
[6]
  AMPK phosphorylation (threonine 172): 122.7 ± 5.23%
[7]; read-out: IC50, HMGCoAR (literature value for pravastatin)
  IC50: 0.47 µM
[8]
  HNF1-α level (activation up to): 116.9 ± 3.21%
[9]
  phosphorylation level of HMGCoAR (serine 872): 143.5 ± 4.64%
[10]
  LDL uptake: 226.9 ± 11.05%
[11]
  total LDLR protein level: 140.8 ± 15.35%

## IAVPGEVA [peptide from soybean glycinin hydrolysis with pepsin]
[12]; soybean peptides
  mechanism of HMGCoAR inhibition (AMPK phosphorylation): share the same mechanism of HMGCoAR inhibition
[7]; [13]
  IC50: 222 µM

## IAVPTGVA [peptide from soybean glycinin hydrolysis with pepsin]
[12]; soybean peptides
  mechanism of HMGCoAR inhibition (AMPK phosphorylation): share the same mechanism of HMGCoAR inhibition
[7]; [13]
  IC50: 247 µM

## LILPKHSDAD [peptide from lupin protein hydrolysis with pepsin]
[12]; lupin peptides
  mechanism of HMGCoAR inhibition (AMPK phosphorylation): share the same mechanism of HMGCoAR inhibition

## LPYP [peptide from soybean glycinin hydrolysis with pepsin]
[12]; soybean peptides
  mechanism of HMGCoAR inhibition (AMPK phosphorylation): share the same mechanism of HMGCoAR inhibition
[7]; [13]
  IC50: 300 µM

## LTFPGSAED [peptide from lupin protein hydrolysis with pepsin]
[12]; lupin peptides
  mechanism of HMGCoAR inhibition (AMPK phosphorylation): share the same mechanism of HMGCoAR inhibition
[7]; [14]
  IC50: 68.4 µM

## VGVL [peptide from amaranth protein hydrolysis with pepsin]
[7]; [14]
  IC50: 50 µM

## YVVNPDNDEN [peptide from soybean β-conglycinin]
[7]; [15]
  IC50: 150 µM

## YVVNPDNNEN [peptide from soybean β-conglycinin]
[7]; [15]
  IC50: 200 µM
